Measurements reported in paper PMC7822874, “Chemoprotective antimalarials identified through quantitative high-throughput screening of Plasmodium blood and liver stage parasites” (Scientific Reports, 2021).
Several values for one entry are separate records, joined by “and”; a condition that tells them apart may be missing. Identical values can stand only once.

Tests used:
[1] = system: T1, Plasmodium falciparum Dd2-attB-ScDHODH (transgenic line expressing yeast DHODH), asexual blood stages; assay: organism not typed; design: replicate k of 3 (each line is one of three independent assays; the three lines of one compound and parasite line follow each other)
T1 construct: Dd2-attB-ScDHODH, the transgenic line that expresses yeast DHODH
In short: (§1)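 We compare activity in parasites carrying fumarate-using yeast DHODH with that in the parental line; mETC or parasite DHODH inhibitors are bypassed by this enzyme. Data come from three independent assays, analysed by two-sided Student's t-tests.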

[2] = system: T2, Plasmodium falciparum Dd2-attB (parental line), asexual blood stages; assay: microbe, parasite or virus in culture; design: replicate k of 3 (each line is one of three independent assays; the three lines of one compound and parasite line follow each other); settings: n = 1; for Individual replicates / Log AC50 (M): 72 h; for AC50: Plasmodium falciparum, DD2, 72 h, read-out: Individual replicates / Log AC50 (converted)
T2 construct: Dd2-attB, the isogenic parental line
In short: as §1

[3] = 72 h; n = 1; read-out: Individual replicates / Log AC50 (converted)

SMILES	Individual replicates / Log AC50 (M) ([1]; 72 h, n = 1)	AC50 [1, 3] [µM]	Individual replicates / Log AC50 (M) [2]	AC50 [2] [µM]	Individual replicates / Log AC50 (M) ([1]; 72 h; n = 1)
O=C(O)c1ccc(O)c2ncc(NC3CCNC3)cc12 (stereo not drawn) [NCGC00241039-01]	-4.8486 Log AC50 (M) and -4.6486 Log AC50 (M)	20	-4.7486 Log AC50 (M) and -4.7986 Log AC50 (M)	20	
COC(=O)c1ccc(O)c2ncc(NC3CCNC3)cc12 (stereo not drawn) [NCGC00241040-01]		15.9	-4.7486 Log AC50 (M) and -4.8486 Log AC50 (M)	14.2	-4.7986 Log AC50 (M)
N[C@H]1CCN(c2cnc3c(O)ccc(C(=O)O)c3c2)C1 [NCGC00241041-01]		15.9		14.2	
COC(=O)c1ccc(O)c2ncc(N3CC[C@H](N)C3)cc12 [NCGC00241042-01]	-4.7486 Log AC50 (M)	17.8	-4.9986 Log AC50 (M) and -4.8486 Log AC50 (M)	17.8	
COC(=O)c1ccc(O)c2ncc(N3CC[C@@H](N)C3)cc12 [NCGC00241044-01]	-5.1986 Log AC50 (M) and -5.0986 Log AC50 (M)	11.3	-4.8986 Log AC50 (M) and -5.0486 Log AC50 (M)	7.1	
O=C(O)c1ccc(O)c2ncc(N3CCCNCC3)cc12 [NCGC00241047-01]	-4.7986 Log AC50 (M)	15.9	-4.8986 Log AC50 (M) and -4.8486 Log AC50 (M)	15.9	
CCOC(=O)c1ccc(O)c2ncc(-c3ccc(C(=N)N)cc3)cc12 [NCGC00241050-01]		20		17.8	-4.6986 Log AC50 (M)
CC1(C)OB(c2ccc(O)c3ncc(N4CCNCC4)cc23)OC1(C)C [NCGC00241053-01]	-5.0486 Log AC50 (M) and -4.9986 Log AC50 (M)	7.1	-4.8986 Log AC50 (M) and -5.0486 Log AC50 (M)	8.94	
N=C(N)c1cccc(-c2cnc3c(O)ccc(C(=O)O)c3c2)c1 [NCGC00241054-02]	-4.7486 Log AC50 (M) and -4.8486 Log AC50 (M)	14.2	-4.8986 Log AC50 (M) and -4.9486 Log AC50 (M)	10	
NC(=O)c1cccc(-c2cnc3c(O)ccc(C(=O)O)c3c2)c1 [NCGC00241055-01]		14.2		15.9	
O=C(O)c1ccc(O)c2ncc(-c3ccc(N4CCOCC4)cc3)cc12 [NCGC00241754-01]		14.2	-4.7986 Log AC50 (M)	15.9	
O=C(O)c1ccc(O)c2ncc(N3CCC(N4CCOCC4)C3)cc12 (stereo not drawn) [NCGC00241757-01]		15.9	-4.9486 Log AC50 (M) and -4.7986 Log AC50 (M)	10	-4.7986 Log AC50 (M)
O=C(O)c1ccc(O)c2ncc(N3CCCN(C4CCCC4)CC3)cc12 [NCGC00241765-01]	-4.7486 Log AC50 (M) and -4.6986 Log AC50 (M)	20	-4.7486 Log AC50 (M)	17.8	
CC(Cc1cnccn1)Nc1cnc2c(O)ccc(C(=O)O)c2c1 (stereo not drawn) [NCGC00241766-01]		7.97	-4.8486 Log AC50 (M)	15.9	
CCOC(=O)c1ccc(OC(C)=O)c2ncc(N3CCOCC3)cc12 [NCGC00244523-01]		4.48	-5.3486 Log AC50 (M) and -5.3986 Log AC50 (M)	4.48	-5.3486 Log AC50 (M)
CN(C)C(=O)c1cccc(-c2cc(O)c3ncccc3c2)c1 [NCGC00244525-01]	-5.1986 Log AC50 (M) and -5.0986 Log AC50 (M)	6.33	-5.2486 Log AC50 (M) and -5.1486 Log AC50 (M)	7.1	
